Measurements taken from ChEMBL document CHEMBL3044761, “Lethal Activity of a Trehalase Inhibitor, Validoxylamine A, against Mamestra brassicae and Spodoptera litura” (J Pestic Sci, 1994).
pIC50: −log10 of the molar value.

Columns and labels:
[1] = Inhibition of Rhizoctonia solani alpha-glucosidase; details: read-out: I50
Spodoptera litura [2] = experiment: Insecticidal activity against last-instar Spodoptera litura larvae assessed as larval pupal intermediate injected at 2 ug/larvae (reference value: […]); format: functional
Spodoptera litura [3] = experiment: Insecticidal activity against last-instar Spodoptera litura larvae assessed as wing pad separation injected at 50 ug/larvae (reference value: 100%); format: functional
Spodoptera litura [4] = experiment: Insecticidal activity against last-instar Spodoptera litura larvae assessed as normal pupae injected at 50 ug/larvae (reference value: 100%); format: functional
Chitinase A1 = biological target: T1, Chitinase A1 (Thanatephorus cucumeris (strain AG1-IB / isolate 7/3/14) (Lettucebottom rot fungus) (Rhizoctonia solani), UniProt M5BZV0); experiment: Inhibition of Rhizoctonia solani chitinase; details: read-out: I50
T1 sequence (M5BZV0 whole entry): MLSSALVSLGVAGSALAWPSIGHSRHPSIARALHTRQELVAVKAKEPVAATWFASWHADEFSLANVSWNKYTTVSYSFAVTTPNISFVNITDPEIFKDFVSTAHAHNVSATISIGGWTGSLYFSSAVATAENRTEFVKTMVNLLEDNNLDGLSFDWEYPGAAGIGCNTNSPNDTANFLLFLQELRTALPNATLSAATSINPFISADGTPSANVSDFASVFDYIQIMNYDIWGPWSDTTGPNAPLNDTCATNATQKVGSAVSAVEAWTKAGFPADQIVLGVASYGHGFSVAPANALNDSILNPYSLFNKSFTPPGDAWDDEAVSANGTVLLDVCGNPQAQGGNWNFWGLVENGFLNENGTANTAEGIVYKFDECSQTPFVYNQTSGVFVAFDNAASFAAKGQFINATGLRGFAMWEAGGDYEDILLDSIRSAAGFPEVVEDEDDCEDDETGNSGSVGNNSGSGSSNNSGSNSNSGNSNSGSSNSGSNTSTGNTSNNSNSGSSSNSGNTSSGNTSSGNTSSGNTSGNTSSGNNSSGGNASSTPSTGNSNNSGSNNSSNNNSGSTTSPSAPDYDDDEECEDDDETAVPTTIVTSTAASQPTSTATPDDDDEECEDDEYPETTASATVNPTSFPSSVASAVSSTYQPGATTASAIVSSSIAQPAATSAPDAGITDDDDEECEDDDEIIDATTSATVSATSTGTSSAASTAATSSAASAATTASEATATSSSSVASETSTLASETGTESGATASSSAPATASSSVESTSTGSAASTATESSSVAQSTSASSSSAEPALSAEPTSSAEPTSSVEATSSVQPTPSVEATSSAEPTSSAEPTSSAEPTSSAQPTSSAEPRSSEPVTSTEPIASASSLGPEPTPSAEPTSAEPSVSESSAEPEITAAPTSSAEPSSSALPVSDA

Mamestra brassicae [5] = experiment: Insecticidal activity against last-instar Mamestra brassicae larvae assessed as larval-pupal intermediate injected at 50 ug/larvae (reference value: 0%); format: functional
Mamestra brassicae [6] = experiment: Insecticidal activity against last-instar Mamestra brassicae larvae assessed as partial pupation at 50 ug/larvae topical application (reference value: 10%); format: functional

For `OCC1=C[C@H](N[C@H]2C[C@H](CO)[C@@H](O)[C@H](O)[C@H]2O)[C@H](O)[C@@H](O)[C@@H]1O` [VALIDOXYLAMINE A], the pIC50 [1] was less than 3.00, the Activity (Spodoptera litura [2]) was 15% and the Activity (Spodoptera litura [3]) was 13%. The Activity (Spodoptera litura [4]) was 0%, the pIC50 (Chitinase A1) was less than 3.00 and the Activity (Mamestra brassicae [5]) was 100%. For the same molecule, the Activity (Mamestra brassicae [6]) was 40%.
